Measurements: PMC12869243, “Urate-lowering effect of delphinidin-3-glucoside in red kidney beans via binding to the FAD site of the XO enzyme” (Journal of Advanced Research, 2025)

Tests used:
[1] = target: T1, xanthine oxidase (XO) (Bos taurus, UniProt P80457)
T1 construct: gene XDH

[2] = target: T1, xanthine oxidase (XO); assay: SPR (Biacore T200, CM5 chip, immobilised XO, steady-state analysis); also lowers uric acid production by purified XO (UHPLC-MS); assay type: binding

T1 sequence (P80457 2-1332): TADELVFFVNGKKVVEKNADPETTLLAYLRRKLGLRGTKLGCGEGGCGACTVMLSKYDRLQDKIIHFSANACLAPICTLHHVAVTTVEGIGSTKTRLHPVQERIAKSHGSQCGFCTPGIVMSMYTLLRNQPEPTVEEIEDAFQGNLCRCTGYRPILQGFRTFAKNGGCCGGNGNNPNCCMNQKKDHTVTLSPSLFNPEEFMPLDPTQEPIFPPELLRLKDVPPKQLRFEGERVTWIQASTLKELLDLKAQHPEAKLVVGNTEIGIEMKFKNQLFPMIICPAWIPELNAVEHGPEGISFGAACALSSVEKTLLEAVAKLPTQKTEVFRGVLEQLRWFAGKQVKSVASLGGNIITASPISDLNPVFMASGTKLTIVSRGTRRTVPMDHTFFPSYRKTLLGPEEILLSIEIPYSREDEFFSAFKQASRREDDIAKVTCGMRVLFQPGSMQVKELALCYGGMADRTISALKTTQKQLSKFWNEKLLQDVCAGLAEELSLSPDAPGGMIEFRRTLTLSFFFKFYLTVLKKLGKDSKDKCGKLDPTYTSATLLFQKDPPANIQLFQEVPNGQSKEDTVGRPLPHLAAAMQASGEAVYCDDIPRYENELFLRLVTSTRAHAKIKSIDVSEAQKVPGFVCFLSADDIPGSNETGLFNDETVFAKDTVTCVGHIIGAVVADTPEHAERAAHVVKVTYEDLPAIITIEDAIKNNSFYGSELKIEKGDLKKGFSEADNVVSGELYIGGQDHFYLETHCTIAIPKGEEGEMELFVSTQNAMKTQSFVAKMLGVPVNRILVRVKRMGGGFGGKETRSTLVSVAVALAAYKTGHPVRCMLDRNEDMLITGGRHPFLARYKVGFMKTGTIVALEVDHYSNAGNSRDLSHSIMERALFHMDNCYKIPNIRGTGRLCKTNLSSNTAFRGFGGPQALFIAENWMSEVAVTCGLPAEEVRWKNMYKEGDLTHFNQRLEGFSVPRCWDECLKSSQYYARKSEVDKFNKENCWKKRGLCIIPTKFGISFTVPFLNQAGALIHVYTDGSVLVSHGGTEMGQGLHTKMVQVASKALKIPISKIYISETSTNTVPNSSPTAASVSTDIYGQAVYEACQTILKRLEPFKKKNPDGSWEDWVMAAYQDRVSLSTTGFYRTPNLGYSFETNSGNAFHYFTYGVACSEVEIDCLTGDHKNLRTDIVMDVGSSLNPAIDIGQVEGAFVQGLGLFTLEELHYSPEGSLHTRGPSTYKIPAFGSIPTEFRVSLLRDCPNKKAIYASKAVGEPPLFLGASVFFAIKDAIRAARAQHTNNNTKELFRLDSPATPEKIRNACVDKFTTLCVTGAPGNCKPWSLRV

| Kd [2] | Compound | XO reaction-UHPLC/MS assay of uric acid production from xanthine, AP at 100 μM a [1] |
| --- | --- | --- |
|  | Oc1ncnc2[nH]ncc12 [AP, allopurinol] | We observed a significant reduction in uric acid levels in the AP treated group, a potent purine-like XOI |
| 250 nM | OC[C@H]1O[C@@H](Oc2cc3c(O)cc(O)cc3[o+]c2-c2cc(O)c(O)c(O)c2)[C@H](O)[C@@H](O)[C@@H]1O [Dp-3G, delphinidin-3-glucoside] |  |
